Measurements published in paper PMC6446301, “Evaluation of therapeutic effects of FAK inhibition in murine models of atherosclerosis” (BMC Research Notes, 2019).

Columns and labels:
[1] = tested on: IGF-1R (insulin-like growth factor 1 receptor kinase); conditions: cited from earlier work
[2] = Clinical biochemistry markers in serum, intervention trial LDLr KO mice; type: in vivo, mouse; conditions: Intervention (8 + 8 weeks), mean ± SEM
From the text: (§1) To assess the therapeutic effect of FAK inhibition, the following three different designs were applied: prevention (1) and therapeutic intervention (2) in apoE KO mice, and therapeutic intervention (3) in LDLr KO mice. The prevention trial consisted of 8-week concurrent treatment with the HF/HC diet following 1 week of pre-loading of the HF/HC diet (Additional file 3: Figure S2A). The therapeutic intervention trial consisted of 6- and 8-week treatment after 6- and 8-week pre-loading of the HF/HC diet in apoE KO and LDLr KO mice, respectively (Additional file 3: Figure S2B). Body weight and food intake were measured once weekly. The mice were euthanized under terminal inhalation anesthesia with isoflurane followed by blood collection from abdominal vein.
(§2) Atherosclerotic lesion area was evaluated in the aorta by en face analysis (Additional file 4: Figure S3A) and in aortic root by cross-sectional analysis (Additional file 4: Figure S3B). The aorta was subjected to Sudan IV staining, and total area of the plaque lesion (TAOL) and area of whole aorta from arch without the region of brachiocephalic artery to common iliac artery (AOWA) were measured using the Definiens imaging software. Area of lesion (%) was calculated by the following formula; Area of lesion (%) = TAOL/AOWA × 100. After en face analysis, the aorta was washed and then blotted dry, weighed, minced, and total lipid was extracted with chloroform/methanol. Total and free cholesterol levels in the aortic extracts were determined with an enzymatic colorimetric assay (Wako Pure Chemical Industries Ltd.). Cross sections were cut at 5 μm thickness and 6 serial sections were collected every 50 μm along the aortic root. Lesion area analysis was made on the cross sections subjected to hematoxylin and eosin (HE) staining. Three representative sections derived from 3 segments were quantified per mouse. Lesion area values from the 3 sections were summed up. Histological features using serial cross sections were subjected to staining for EvG and anti Mac-3 antigen. Clinical biochemistry markers in serum was evaluated using DRICHEM 7000 (FUJIFILM Medical, Japan). Statistical comparison of control and compound 12-treated groups was carried out with a Mann–Whitney test (two-tailed) using GraphPad Prism.
(§3) Data are mean ± SEM. *; P < 0.05, **; P < 0.01 ***; P < 0.001 as compared with the control.

[3] = tested on: CDK1 (cyclin-dependent kinase 1); conditions: cited from earlier work
[4] = Clinical biochemistry markers in serum, prevention trial apoE KO mice; type: in vivo, mouse; conditions: Prevention (8 weeks), mean ± SEM
From the text: as §1, §2, §3

apoE KO mice [5] = assay: Atherosclerosis therapeutic intervention trial in apoE KO mice; type: in vivo, mouse
Method: (§4) The mutant male mice, apoE KO (B6.129P2-Apoe^tm1Unc/J) and LDLr KO (B6.129S7-Ldlr^tm1Her/J) at the age of 7 weeks, were purchased from Charles River Laboratories, and acclimated to the facility for 7 days. The mice were housed at 25 °C with a 12:12 h light–dark cycle, and food and water were provided ad libitum. The HF/HC diet D12108 containing 1.25% cholesterol and 20% fat was purchased from Research Diets. A selective small molecule FAK inhibitor Compound 12 (Additional file 1: Figure S1; a 2-phenylamino-pyrimidin-4-ylamino-2,3-dihydro-isoindol-1-one derivative) was administrated as food admixture at a concentration of 0.03%. Compound 12 has an IC50 of 6 nM on FAK and no activity on insulin receptor kinase, insulin-like growth factor 1 receptor kinase, cyclin-dependent kinase 1 and Src (Additional file 2: Table S1) as described by Kawahara et al.).
as §1, §2

[6] = Clinical biochemistry markers in serum, intervention trial apoE KO mice; type: in vivo, mouse; conditions: Intervention (6 + 6 weeks), mean ± SEM
From the text: as §1, §2, §3

[7] = tested on: IRK (insulin receptor kinase); conditions: cited from earlier work
apoE KO mice [8] = assay: Atherosclerosis prevention trial in apoE KO mice; type: in vivo, mouse
Method: as §4, §1, §2

LDLr KO mice = assay: Atherosclerosis therapeutic intervention trial in LDLr KO mice; type: in vivo, mouse; conditions: 0.03% food admixture
Method: as §4, §1, §2

FAK = conditions: cited from earlier work
c-Src = conditions: cited from earlier work
[9] = means, radiolabeled ATP, DELFIA or TR-FRET method
[10] = therapeutic intervention, 0.03% food admixture

COc1ccc(Nc2ncc(Cl)c(Nc3ccc(N4CCC(N5CCN(C)CC5)CC4)c4c3C(=O)N(C)C4)n2)c(OC)c1 [Compound 12, 7-[5-Chloro-2-(2,4-dimethoxy-phenylamino)-pyrimidin-4-ylamino]-2-methyl-4-[4-(4-methyl-piperazin-1-yl)-piperidin-1-yl]-2,3-dihydro-isoindol-1-one]
activity on insulin-like growth factor 1 receptor kinase [1]: no activity
IC50 [1, 9]: > 10 µM
ALB [2]: 2.2 ± 0.05 g/dL
ALP [2]: 406 ± 34^** U/L
ALT [2]: 24 ± 1.6^** U/L
AST [2]: 97 ± 8.0 U/L
BUN [2]: 32 ± 1.2 mg/dL
CPK [2]: 196 ± 76^** U/L
CRE [2]: 0.3 ± 0.02^*** mg/dL
LDH [2]: 295 ± 38 U/L
T-BIL [2]: 0.6 ± 0.05 mg/dL
T-Chol [2]: 714 ± 51^*** mg/dL
TG [2]: 273 ± 21 mg/dL
activity on cyclin-dependent kinase 1 [3]: no activity
IC50 [3, 9]: > 10 µM
ALB [4]: 2.2 ± 0.07^* g/dL
ALP [4]: 554 ± 31^** U/L
ALT [4]: 25 ± 1.6 U/L
AST [4]: 115 ± 15 U/L
BUN [4]: 41 ± 2.5 mg/dL
CPK [4]: 700 ± 362 U/L
CRE [4]: 0.3 ± 0.02^*** mg/dL
Glc [4]: 167 ± 16 mg/dL
Insulin [4]: 751 ± 109 pg/mL
LDH [4]: 535 ± 47^** U/L
T-BIL [4]: 0.5 ± 0.03 mg/dL
T-Chol [4]: 1,221 ± 102^* mg/dL
TG [4]: 94 ± 8.4^* mg/dL
lesion area of aortic root (cross-sectional analysis) (apoE KO mice [5]; intervention 6 + 6 weeks, 0.03% food admixture): appeared to be reduced
cholesterol content in aorta (apoE KO mice [5]; intervention 6 + 6 weeks, 0.03% food admixture, P < 0.05 vs control): significantly reduced
lesion area of the aorta (en face analysis) (apoE KO mice [5]; intervention 6 + 6 weeks, 0.03% food admixture, normalized to Control at 6 weeks, control at 12 weeks 8.03%): 4.75%
change of lesion area (mm^2) of aortic root vs control (apoE KO mice [5]; intervention 6 + 6 weeks, 0.03% food admixture, printed in Fig. 2e): -15%
reduction of lesion area of the aorta (en face analysis) vs control (apoE KO mice [5]; intervention, 6 + 6 weeks, 0.03% food admixture with HF/HC diet): 40.9%
body weight change (apoE KO mice [5]; [10]): no remarkable changes
food intake (apoE KO mice [5]; [10]): no remarkable changes
tolerability (apoE KO mice [5]; [10]): generally well tolerated
ALB [6]: 2.3 ± 0.04 g/dL
ALP [6]: 469 ± 37^*** U/L
ALT [6]: 26 ± 1.3 U/L
AST [6]: 108 ± 7.0 U/L
BUN [6]: 42 ± 2.5 mg/dL
CPK [6]: 227 ± 48 U/L
CRE [6]: 0.3 ± 0.02^*** mg/dL
LDH [6]: 590 ± 36^* U/L
T-BIL [6]: 0.5 ± 0.05 mg/dL
T-Chol [6]: 1,016 ± 53^* mg/dL
TG [6]: 93 ± 6.7^** mg/dL
activity on insulin receptor kinase [7]: no activity
IC50 [7, 9]: > 3.3 µM
body weight change (apoE KO mice [8]; 0.03% food admixture): no remarkable changes
food intake (apoE KO mice [8]; 0.03% food admixture): no remarkable changes
tolerability (apoE KO mice [8]; 0.03% food admixture): generally well tolerated
histological features of atherosclerotic plaques (HE, EvG, anti Mac-3) (apoE KO mice [8]; 8 weeks, 0.03% food admixture): foam cell rich, reduced fibrous and lipid core regions
reduction of lesion area of the aorta (en face analysis) vs control (apoE KO mice [8]; 8 weeks, 0.03% food admixture with HF/HC diet): 41.2%
cholesterol content in aorta (apoE KO mice [8]; 8 weeks, 0.03% food admixture, P < 0.01 vs control): significantly reduced
lesion area of aortic root (cross-sectional analysis) (apoE KO mice [8]; 8 weeks, 0.03% food admixture, P < 0.05 vs control): significantly reduced
lesion area of the aorta (en face analysis, TAOL/AOWA x 100) (apoE KO mice [8]; 8 weeks, 0.03% food admixture, control 8.92%): 5.24%
cholesterol content in aorta (LDLr KO mice; intervention 8 + 8 weeks, P < 0.01 vs control): significantly reduced
lesion area of the aorta (en face analysis) (LDLr KO mice; intervention 8 + 8 weeks, normalized to Control at 8 weeks, control at 16 weeks 8.51%): 5.83%
body weight change (LDLr KO mice; therapeutic intervention): no remarkable changes
food intake (LDLr KO mice; therapeutic intervention): no remarkable changes
tolerability (LDLr KO mice; therapeutic intervention): generally well tolerated
IC50 (FAK): 0.006 µM
activity on Src (c-Src): no activity
IC50 (c-Src; [9]): > 10 µM
